These are literature values, as cited in patent US8680301B2, “Lipase activity inhibitors containing high-molecular weight polyphenol fractions, tea extracts, and processes for producing the same” (Suntory Holdings Limited, priority 2004, dated 2014).

The conditions of the series: clinical reports.

Take `CCCCCCCCCCC[C@@H](C[C@@H]1OC(=O)[C@H]1CCCCCC)OC(=O)[C@H](CC(C)C)NC=O` [Xenical®]: the Reported side effects entry is “side effects such as fatty stool, increased stool frequency, soft stool, diarrhea and stomachache”.

`OC1(c2ccc(Cl)cc2)c2ccccc2C2=NCCN21` (centres unmarked) [Mazindole®]: the Reported side effects entry was “side effects such as excessive thirst (mouth dryness), constipation, epigastric distress, nausea and vomiting”.
